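In this assay, cells in 96-well plates receive the compound at five concentrations for 48 hours. Endpoints are linearly interpolated between the surrounding concentrations. At the GI50, growth is halved. TGI denotes the concentration required for complete inhibition of growth.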
Key:
Assay in all cases: inhibition of tumour cell growth, NCI panel, 48 h
[1] = test system: OVCAR-4 ovarian
[2] = test system: RXF 393 renal
[3] = test system: HCT-116 colon
[4] = test system: SNB-19 CNS
[5] = test system: TK-10 renal
[6] = test system: BT-549 breast
[7] = test system: DU-145 prostate
[8] = test system: NCI-H522 lung
[9] = test system: U251 CNS
[10] = test system: NCI/ADR-RES ovarian
[11] = test system: HOP-92 NSCLC
[12] = test system: UO-31 renal
[13] = test system: MALME-3M melanoma
[14] = test system: HS 578T breast
[15] = test system: CAKI-1 renal
[16] = test system: CCRF-CEM leukemia
[17] = test system: HL-60(TB) leukemia
[18] = test system: OVCAR-3 ovarian
[19] = test system: NCI-H460 lung
[20] = test system: MOLT-4 leukemia
[21] = test system: KM12 colon
[22] = test system: SN12C renal
[23] = test system: ACHN renal
[24] = test system: MDA-MB-231 breast
[25] = test system: SR leukemia
[26] = test system: T-47D breast
[27] = test system: HT29 colon
[28] = test system: PC-3 prostate
[29] = test system: SK-OV-3 ovarian
[30] = test system: 786-0 renal
[31] = test system: SK-MEL-5 melanoma
[32] = test system: HOP-62 NSCLC
[33] = test system: COLO 205 colon
[34] = test system: SW-620 colon
[35] = test system: EKVX NSCLC
[36] = test system: SF-268 CNS
[37] = test system: IGROV1 ovarian
[38] = test system: M14 melanoma
[39] = test system: RPMI-8226 leukemia
[40] = test system: NCI-H23 lung
[41] = test system: OVCAR-5 ovarian
[42] = test system: SK-MEL-2 melanoma
[43] = test system: HCC-2998 colon
[44] = test system: A498 renal
[45] = test system: A549 NSCLC
[46] = test system: LOX IMVI melanoma
[47] = test system: OVCAR-8 ovarian
[48] = test system: SF-539 CNS
[49] = test system: HCT-15 colon
[50] = test system: MDA-MB-435
[51] = test system: SK-MEL-28 melanoma
[52] = test system: UACC-257 melanoma
[53] = test system: SF-295 CNS
[54] = test system: UACC-62 melanoma
[55] = test system: MCF7 breast
[56] = test system: SNB-75 CNS

Compound: CCN(CC)CCSCCCNc1c2ccc(Cl)cc2nc2ccc(OC)cc12
- GI50 [1]: 756 nM
- TGI [1]: 3030 nM
- GI50 [2]: 925 nM
- TGI [2]: 2380 nM
- GI50 [3]: 488 nM
- TGI [3]: 2070 nM
- GI50 [4]: 1250 nM
- TGI [4]: 4880 nM
- GI50 [5]: 1550 nM
- TGI [5]: 3870 nM
- GI50 [6]: 1770 nM
- TGI [6]: 3500 nM
- GI50 [7]: 633 nM
- TGI [7]: 3010 nM
- GI50 [8]: 1390 nM
- TGI [8]: 3130 nM
- GI50 [9]: 1700 nM
- TGI [9]: 3320 nM
- GI50 [10]: 1150 nM
- TGI [10]: 3700 nM
- GI50 [11]: 1640 nM
- TGI [11]: 3410 nM
- GI50 [12]: 1270 nM
- TGI [12]: 3290 nM
- GI50 [13]: 2030 nM
- TGI [13]: 3730 nM
- GI50 [14]: 2120 nM
- TGI [14]: 5280 nM
- GI50 [15]: 1230 nM
- TGI [15]: 3450 nM
- GI50 [16]: 1260 nM
- TGI [16]: 4720 nM
- GI50 [17]: 1550 nM
- TGI [17]: 4110 nM
- GI50 [18]: 1300 nM
- TGI [18]: 4180 nM
- GI50 [19]: 383 nM
- TGI [19]: 1580 nM
- GI50 [20]: 435 nM
- TGI [20]: 3940 nM
- GI50 [21]: 802 nM
- TGI [21]: 5030 nM
- GI50 [22]: 1040 nM
- TGI [22]: 3480 nM
- GI50 [23]: 719 nM
- TGI [23]: 3050 nM
- GI50 [24]: 1010 nM
- TGI [24]: 3000 nM
- GI50 [25]: 976 nM
- TGI [25]: 4840 nM
- GI50 [26]: 2050 nM
- TGI [26]: 4820 nM
- GI50 [27]: 423 nM
- TGI [27]: 1940 nM
- GI50 [28]: 1230 nM
- TGI [28]: 3060 nM
- GI50 [29]: 1560 nM
- TGI [29]: 3920 nM
- GI50 [30]: 1120 nM
- TGI [30]: 2430 nM
- GI50 [31]: 1800 nM
- TGI [31]: 3240 nM
- GI50 [32]: 558 nM
- TGI [32]: 2210 nM
- GI50 [33]: 800 nM
- TGI [33]: 2250 nM
- GI50 [34]: 511 nM
- TGI [34]: 3330 nM
- GI50 [35]: 1730 nM
- TGI [35]: 4720 nM
- GI50 [36]: 1060 nM
- TGI [36]: 3010 nM
- GI50 [37]: 1560 nM
- TGI [37]: 4740 nM
- GI50 [38]: 1710 nM
- TGI [38]: 3460 nM
- GI50 [39]: 1300 nM
- TGI [39]: 4780 nM
- GI50 [40]: 1320 nM
- TGI [40]: 3280 nM
- GI50 [41]: 1140 nM
- TGI [41]: 4390 nM
- GI50 [42]: 2060 nM
- TGI [42]: 3870 nM
- GI50 [43]: 1020 nM
- TGI [43]: 2420 nM
- GI50 [44]: 654 nM
- TGI [44]: 2160 nM
- GI50 [45]: 980 nM
- TGI [45]: 3030 nM
- GI50 [46]: 337 nM
- TGI [46]: 1340 nM
- GI50 [47]: 1000 nM
- TGI [47]: 3540 nM
- GI50 [48]: 1400 nM
- TGI [48]: 2970 nM
- GI50 [49]: 433 nM
- TGI [49]: 2360 nM
- GI50 [50]: 1460 nM
- TGI [50]: 2890 nM
- GI50 [51]: 1840 nM
- TGI [51]: 3800 nM
- GI50 [52]: 2060 nM
- TGI [52]: 3850 nM
- GI50 [53]: 1130 nM
- TGI [53]: 2760 nM
- GI50 [54]: 1930 nM
- TGI [54]: 3870 nM
- GI50 [55]: 791 nM
- TGI [55]: 3260 nM
- GI50 [56]: 1280 nM
- TGI [56]: 2720 nM
